pIC50, pKi: −log10 of the molar value.
Molecular target: T1, Prothrombin (Homo sapiens, UniProt P00734)
Test: Compound was evaluated for inhibition of human alpha-thrombin catalytic activity

Structure (SMILES) | pKi
N=C(N)c1ccc2[nH]c(Cc3ccccc3)cc2c1 | 6.59

Molecular target: T1, Prothrombin
Test: Compound was evaluated for inhibition of human alpha-thrombin catalytic activity.

Structure (SMILES) | pIC50
N=C(N)c1ccc2[nH]ccc2c1 | 4.66
Cc1c(-c2ccccc2)[nH]c2ccc(C(=N)N)cc12 | 4.18
N=C(N)c1ccc2[nH]c(-c3ccccc3)cc2c1 | 4.72
N=C(N)c1ccc2[nH]c(C(Cc3ccccc3F)c3ccccc3F)cc2c1 (configuration not stated) | 4.82
N=C(N)c1ccc2[nH]c(Cc3cccc(CCc4ccccc4)c3)cc2c1 | 5.62
N=C(N)c1ccc2[nH]c(Cc3ccccc3)cc2c1 | 5.85
NCc1ccc2[nH]c(C(Cc3ccccc3F)c3ccccc3F)cc2c1 (configuration not stated) | 4.23
N=C(N)c1ccc2[nH]c(Cc3cccc(Oc4ccccc4)c3)cc2c1 | 5.70
N=C(N)c1ccc2[nH]c(Cc3ccccc3F)cc2c1 | 4.44
N=C(N)c1ccc2[nH]c(-c3ccccc3O)cc2c1 | 4.42
N=C(N)c1ccc2[nH]c3c(c2c1)CCCC3 | 4.70

Source: ChEMBL document CHEMBL1152106, “Derivatives of 5-amidine indole as inhibitors of thrombin catalytic activity” (Bioorg Med Chem Lett, 1996)
